In patent US20110184034A1, “Severe sepsis preventive therapeutic agent” (priority 2002, published 2011):

Tests used:
[1] = system: female CBA/J mice, DSS induced colitis; test: Dextran sulfate induced colitis model; format: in vivo, mouse; conditions: for BW (%) / Hb / Ht (%) / RBC / WBC: means ± SE of six mice; for GBS (%) (grossly bloody stool): six mice
Description: A 5% dextran sulfate (DSS) solution was placed in a water feeder to allow free drinking by female CBA/J mice (8 w) for 5 days, the solution was changed to 1% DSS solution on day 6 to allow free drinking for 7 days. The drug (Reference Example B3) (10-30 mg/kg) was suspended in 0.5% methyl cellulose (MC), and orally administered from day 6 under 1% DSS solution drinking once a day for 7 days. After 12 days of drinking DSS, the body weight was measured and stool was observed (grossly bloody stool: GBS). Blood was drawn and white blood count (WBC), red blood count (RBC), hemoglobin concentration (Hb) and hematocrit value (Ht) were measured by using an automatic cell counter (Sysmex).

[2] = system: male Sprague-Dawley rats, balloon-injured carotid artery; test: Rat balloon injury model, vascular thickening (DNA content of carotid artery); format: in vivo; conditions: 30 and 100 mg/kg/d i.p. once a day, 2 weeks
Description: Using male Sprague-Dawley rats, the neck was incised under sodium pentobarbital (45 mg/kg ip) anesthesia to expose left carotid artery. A Forgaty catheter (2F, manufactured by Baxtar) was inserted from the […] to a bifurcation area of internal and external carotid arteries of left carotid artery, a balloon was blown and abraded to the aortic arch bifurcation. This operation was repeated three times to injure the common carotid artery. After the injury, the catheter was extracted, the incision was sutured, and the rats were individually bred in ordinary breeding cages. After 2 weeks from the injury, the rats were exsanguinated under anesthesia, and the left (injured) side and the right (non-injured) side of carotid arteries were removed by 5 mm on the heart side, at 5 mm from the internal and external carotid artery bifurcation area, and the DNA content was measured. The drug (Reference Example B3) was suspended in 0.5% methyl cellulose, and intraperitoneally administered once a day from the day of balloon injury operation to carotid artery enucleation. When balloon injury operation was performed, the drug was administered 30 min before anesthesia and the balloon injury was produced.

[3] = system: TNF-α production, mouse macrophage cell line RAW264.7; test: TNF-α production by β-amyloid peptide (1-40) in RAW264.7; format: cell-based; conditions: β-amyloid peptide (1-40) 10 μM + interferon-γ 10 U/mL
Description: (§1) On the previous day of the experiment, the cells were suspended in RPMI-1640 medium supplemented with 10% inactivated fetal calf serum to 5×10^5 cells/mL and inoculated to a 96-well microplate at 0.2 mL/well. After incubation at 37° C. under 5% CO2/95% air overnight, the medium was changed to an RPMI-1640 medium supplemented with 1% inactivated fetal calf serum, a test substance and β-amyloid peptide (1-40) (final concentration 10 μM) and interferon-γ (final concentration 10 U/mL) were added. After further incubation overnight, the concentrations of tumor necrosis factor-α (TNF-α) and IL-6 in culture supernatants were measured using an enzyme immunoassay kit manufactured by Amersham. The test substance was dissolved at 10 mM in N,N-dimethylformamide and diluted with an RPMI-1640 medium supplemented with 1%, inactivated fetal calf serum to the concentration of 0.1 mM, then diluted with a medium to a 10-fold concentration of the final concentration and 1/10 was added.

[4] = system: IL-6 production, mouse macrophage cell line RAW264.7; test: IL-6 production by β-amyloid peptide (1-40) in RAW264.7; format: cell-based; conditions: β-amyloid peptide (1-40) 10 μM + interferon-γ 10 U/mL
Description: as §1

[5] = system: male DBA/1 mice, type II collagen induced arthritis; test: Collagen induced arthritis model; format: in vivo, mouse; conditions: for Arthritis incidence (%) / Arthritis index: 30 mg/kg orally once a day from collagen immunization
Description: Bovine-derived type II collagen was dissolved in 0.050 acetic acid solution, and an equivalent amount of Freund's complete adjuvant was mixed therewith to give an emulsion. The collagen emulsion was administered intracutaneously into the tail head of male DBA/1 mice (6W) (n=10-12) at 100 μg/0.1 mL to induce arthritis. The levels of flare and edema of four limbs were visually observed during the progress thereof. The drug (Reference Example B3) (30 mg/kg) was suspended in 0.5% MC, and orally administered once a day from collagen immunization for 8 weeks (except Sundays). The onset of arthritis was evaluated every week, and the rate of onset was expressed by (number of limbs having arthritis/number of limbs of mice in one group×100). As indices of arthritis, for each limb, no change was 0, swelling of one finger or plural fingers was 1, flare and swelling seen in the entirety was 2, strong swelling seen in the entirety was 3, crampus tonicus of joint was 4, and the total of four limbs was 16, and arthritis was expressed in (total of all scores of onset mice/number of limbs of mice in one group), wherein 4 was the highest value for one limb.

[6] = system: E. coli O111 inoculated galactosamine-loaded female BALB/c mice; test: Galactosamine loaded mouse Escherichia coli inoculated lethal model, survival; format: in vivo; conditions: E. coli O111 5.9×10^5 CFU i.p. with galactosamine 1 g/kg; test substance 30 mg/kg orally at 1 hr after bacterial inoculation; observed 6 days
Description: Since sepsis is a systemic inflammatory response caused by infection, the effect of a test substance (Reference Example B26) by administration after bacterial inoculation in infection model was studied. […] The test substance was suspended in 0.5% aqueous methyl cellulose solution, and orally administered (30 mg/kg) immediately, 30 min and 1, 2 and 4 hr after the bacterial inoculation. The solvent was orally administered to the control group immediately after the bacterial inoculation.
In other words, the test substance can be expected to show effect of improving the state of severe sepsis complicated with organ dysfunction.

[7] = system: TLR9 signal (CPG), mouse macrophage cell line RAW264.7; test: NO production by TLR9 selective agonist CpG oligoDNA (CPG) in RAW264.7; format: cell-based; conditions: RAW264.7, CpG oligoDNA 75 nmol/L + interferon-γ 0.1 ng/mL, nitrite ion
Description: (§2) Using mouse macrophage cell line RAW264.7, the suppressive effect of the test substance on cytokine production by a TLR selective agonist was investigated. On the previous day of the experiment, the cells were suspended in RPMI-1640 medium supplemented with 10% inactivated fetal calf serum to 5×10^5 cells/mL and inoculated to a 96-well microplate at 0.2 mL/well. After incubation at 37° C. under an atmosphere of 5% CO2/95% air overnight, the medium was changed to an RPMI-1640 medium supplemented with 1% inactivated fetal calf serum, and a test substance, various TLR agonists and interferon-γ (final concentration 0.1 ng/mL) were added. After further incubation overnight, the concentration of nitrite ion (stable metabolite of NO) in the culture supernatant was quantified by fluorescence method using 2,3-dimaminonaphthalene. As the TLR4 selective agonist, LPS was added, as the TLR2 selective agonist, peptide glycan (PGN) was added, and as the TLR9 selective agonist, CpG oligoDNA (CPG) was added, to the final concentrations of 5 ng/mL, 1 μg/mL and 75 nmol/L, respectively. In addition, the test substance was dissolved at 10 mM in N,N-dimethylformamide, diluted with an RPMI-1640 medium supplemented with 1% inactivated fetal calf serum to the concentration of 0.1 mM, then diluted with a medium to a 10-fold concentration of the final concentration and 1/10 was added.

[8] = system: TLR2 signal (PGN), mouse macrophage cell line RAW264.7; test: NO production by TLR2 selective agonist peptide glycan (PGN) in RAW264.7; format: cell-based; conditions: RAW264.7, PGN 1 μg/mL + interferon-γ 0.1 ng/mL, nitrite ion
Description: as §2

[9] = system: LPS-inoculated female BALB/c mice; test: Effect by administration after LPS inoculation in endotoxin shock model (2), survival; format: in vivo, mouse; conditions: LPS 4 mg/kg i.p.; test substance 10 mg/kg i.v. (soybean oil emulsion) at 4 hr after LPS inoculation; observed 5 days
Description: To investigate the treatment effect during the process toward an advanced degree after the onset of sepsis, the effect of a test substance (Reference Example B66) by administration after LPS inoculation in an endotoxin shock model was investigated. […] The test substance was prepared into an emulsified liquid of a soybean oil, and intravenously administered (10 mg/kg) immediately after, 1, 2, 4 and 6 hr after LPS inoculation. An emulsified liquid without a drug was intravenously administered to the control group immediately after LPS inoculation.

[10] = system: TLR4 signal (LPS), mouse macrophage cell line RAW264.7; test: NO production by TLR4 selective agonist LPS in RAW264.7; format: cell-based; conditions: RAW264.7, LPS 5 ng/mL + interferon-γ 0.1 ng/mL, nitrite ion
Description: as §2

[11] = system: LPS-inoculated female BALB/c mice; test: Effect by administration after LPS inoculation in endotoxin shock model (1), survival; format: in vivo, mouse; conditions: LPS 10 mg/kg i.p.; test substance 30 mg/kg i.p. at 1 hr after LPS inoculation; observed one week
Description: To investigate the treatment effect during the process toward an advanced degree after the onset of sepsis, the effect of a test substance (Reference Example B1) by administration after LPS inoculation in an endotoxin shock model was investigated. […] The test substance was suspended in 0.5% aqueous methyl cellulose solution, and intraperitoneally inoculated (30 mg/kg) at 1 hr before, immediately after, 30 min after and 1 hr after LPS inoculation. The solvent was given to the control group at 1 hr before LPS inoculation.

[12] = 10 mg/kg orally once a day for 7 days
[13] = 30 mg/kg orally once a day for 7 days

`CCOC(=O)C1=CCCCC1S(=O)(=O)Nc1ccc(F)cc1F` (stereo not drawn) [Reference Example B3, ethyl 6-[N-(2,4-difluorophenyl)sulfamoyl]-1-cyclohexene-1-carboxylate] was tested, and the “BW (%)” value [1, 12] was 102.0 ± 7.1%, the Hb [1, 12] was 13.2 ± 0.8 g/dL and the “Ht (%)” value [1, 12] was 35.4 ± 2.7%. The RBC [1, 12] was 607.5 ± 45.3 ×10^4/μL, the WBC [1, 12] was 41.0 ± 4.1^+ ×10^2/μL and the “GBS (%) (grossly bloody stool)” value [1, 12] was 83%. For the same compound, the “BW (%)” value [1, 13] was 102.8 ± 7.9%, the Hb [1, 13] was 12.9 ± 0.5 g/dL and the “Ht (%)” value [1, 13] was 35.1 ± 2.7%. For the same compound, the RBC [1, 13] was 616.7 ± 51.1 ×10^4/μL, the WBC [1, 13] was 53.5 ± 7.8^+ ×10^2/μL and the “GBS (%) (grossly bloody stool)” value [1, 13] was 67%. The “changes in WBC, RBC, Hb and Ht induced by DSS” value ([1]; 10-30 mg/kg orally) was “remarkably suppressed changes in WBC, RBC, Hb and Ht induced by DSS”, the “vascular thickening due to balloon injury (DNA content)” value [2] was “suppressed vascular thickening due to balloon injury in a dose-dependent manner” and the “Suppressive rate (%) TNF-α” value ([3]; 1 μM) was 87%. The “Suppressive rate (%) TNF-α” value ([3]; 10 μM) was 97%, the “Suppressive rate (%) IL-6” value ([4]; 1 μM) was 100% and the “Suppressive rate (%) IL-6” value ([4]; 10 μM) was 100%. The “incidence and index of arthritis” value ([5]; 30 mg/kg orally) was “decreased the incidence and index of arthritis”, the “Arthritis incidence (%)” value ([5]; 6W) was 37.5% and the Arthritis index ([5]; 6W) was 0.65. The “Arthritis incidence (%)” value ([5]; 7W) was 40.0%, the Arthritis index ([5]; 7W) was 0.80 and the “Arthritis incidence (%)” value ([5]; 8W) was 60.0%. The Arthritis index ([5]; 8W) was 1.15.
With `CCOC(=O)C1=CCCCC1S(=O)(=O)Nc1ccc(F)cc1Cl` (stereo not drawn) [Reference Example B26, ethyl 6-[N-(2-chloro-4-fluorophenyl)-sulfamoyl]-1-cyclohexene-1-carboxylate] the “Suppressive rate (%) TNF-α” value ([3]; 1 μM) was 88%, the “Suppressive rate (%) TNF-α” value ([3]; 10 μM) was 100% and the “Suppressive rate (%) IL-6” value ([4]; 1 μM) was 93%. The “Suppressive rate (%) IL-6” value ([4]; 10 μM) was 96% and the “life-saving effect (survival)” value [6] was “clear life-saving effect”.
For `CCOC(=O)C1=CCCC[C@H]1S(=O)(=O)Nc1ccc(F)cc1Cl` [Reference Example B66, ethyl (6R)-6-[(2-chloro-4-fluoroanilino)sulfonyl]-1-cyclohexene-1-carboxylate], the IC50 [7] was > 1000 nM, the IC50 [8] was > 1000 nM and the “life-saving effect (survival)” value [9] was “clear life-saving effect”. It also gave an IC50 [10] of 10 nM.
`CCOC(=O)C1=CCCCC1S(=O)(=O)Cc1ccc(F)cc1Cl` (stereo not drawn) [Reference Example D4, ethyl 6-[(2-chloro-4-fluorobenzyl)sulfonyl]-1-cyclohexene-1-carboxylate] was tested, and the IC50 [7] was > 1000 nM, the IC50 [8] was > 1000 nM and the IC50 [10] was 11 nM.
With `CCOC(=O)C1=CCOCC1S(=O)(=O)Nc1ccc(F)cc1Cl` (stereo not drawn) [Reference Example D7, ethyl 3-[(2-chloro-4-fluorophenyl)sulfamoyl]-3,6-dihydro-2H-pyran-4-carboxylate] the IC50 [7] was > 1000 nM, the IC50 [8] was 530 nM and the IC50 [10] was 18 nM.
For `CCOC(=O)C1=CCCCC1S(=O)(=O)Nc1ccc(Cl)cc1F` (stereo not drawn) [Reference Example B1, ethyl 6-[N-(4-chloro-2-fluorophenyl)-sulfamoyl]-1-cyclohexene-1-carboxylate], the “life-saving effect (survival)” value [11] was “clear life-saving effect”, the “Suppressive rate (%) TNF-α” value ([3]; 1 μM) was 77% and the “Suppressive rate (%) TNF-α” value ([3]; 10 μM) was 99%. The “Suppressive rate (%) IL-6” value ([4]; 1 μM) was 80% and the “Suppressive rate (%) IL-6” value ([4]; 10 μM) was 100%.
